Each structure is given as a SMILES string. The source made the active and inactive calls.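 The calls were made as follows: active = fitted half-maximal concentration for a cytotoxic signal drop no higher than ten times the top valid dose tested; inconclusive = flat curve between -70 and -30 percent, or an unreliable fit; inactive = flat within 30 percent, signal rise, or potency beyond limit.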

Consider 77 molecules from PubChem BioAssay AID504726 (Broad Institute, 2011).

The nature of this experiment: viability loss in HeLa cells – cell-based, 24 h, cherry-picked samples, cytotoxicity control, dose response (AID 504726).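 Also: 0% = DMSO neutral controls and -100% = mitoxantrone positive controls.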 Conditions: HeLa viability, CellTiter-Glo ATP luminescence, 24 h; at 35 µM (top of the series).
As for `COc1cc(C(=O)O)cc(NC(=O)c2ccco2)c1OC`, the activity change, negative = cytotoxicity is -8.57% (inactive).
The result for `CCc1ccc(N2CC(C(=O)OCC(=O)N(CC)c3c(N)n(Cc4ccccc4)c(=O)[nH]c3=O)CC2=O)cc1` (configuration not stated) reads -9.97% (inactive); that for `O=C(O)C1(c2ccccc2)CCN(S(=O)(=O)c2ccc(Cl)s2)CC1`, -1.76% (inactive); that for `Clc1ccc(C2=CC(c3ccco3)n3ncnc3N2)cc1` (configuration not stated), -16.1% (inactive).
With `COc1ccc(N(CC(=O)NCc2ccc3c(c2)OCO3)C(=O)c2csnn2)cc1` the figure was 3.04% (inactive); with `CN(C)CCCNC(=O)c1ccccc1Oc1ccccc1`, -6.34% (inactive); with `c1ccc(-c2cn3nc(-c4ccccc4)c(-c4ccccc4)nc3n2)cc1`, -12.6% (inactive).
For `CCN(CC(=O)Nc1ccc(OC)cc1)C(=O)c1cc([N+](=O)[O-])ccc1N1CCOCC1`, the activity change, negative = cytotoxicity is -3.5% (inactive).
With `O=C(COc1cccc(F)c1)Nc1nc(-c2cccnc2)cs1` the figure was -21.4% (inactive).
The result for `CCOc1ccc(S(=O)(=O)N(C)c2ccc(OCC(=O)NC3=NCCS3)cc2)cc1` reads -12.3% (inactive).
The result for `CC(C)N(Cc1ccccc1)C(=O)Cn1c(=O)cnc2ccccc21` reads 0.817% (inactive).
`O=C(NCCCO)c1ccc2nc(-c3ccco3)c(-c3ccco3)nc2c1`: the activity change, negative = cytotoxicity is -12.3% (inactive).
As for `COCCNC(=O)Cn1cc(/C=C2\C(=O)NC(=O)N(c3cccc(C)c3C)C2=O)c2ccccc21`, the activity change, negative = cytotoxicity is -12.7% (inactive).
Turning to `Nc1nc(C(F)(F)F)cc(=O)[nH]1`, the activity change, negative = cytotoxicity is -5.29% (inactive).
With `COCCNC(=O)Nc1ccc2nc(-c3ccco3)c(-c3ccco3)nc2c1`, the activity change, negative = cytotoxicity is -18.1% (inactive).
For the molecule `CC(Cc1ccccc1)NC(=O)NC(C)Cc1ccccc1` (configuration not stated), the activity change, negative = cytotoxicity is -7.16% (inactive).
On to `CCCn1c(SCC(=O)NCc2cccs2)nc2c1c(=O)n(C)c(=O)n2C`, for which the activity change, negative = cytotoxicity is 7.8% (inactive).
The result for `O=c1[nH]c(=O)n(C2CCCCC2)c(O)c1C=Nc1ccc(N2CCOCC2)cc1` reads -11.5% (inactive); that for `CCN(CC(=O)NCc1cccs1)C(=O)c1ccc(S(=O)(=O)Nc2ccccc2C)cc1`, 2.2% (inactive).
With `O=C(CN(Cc1ccccc1F)C(=O)c1csnn1)NCc1ccc2c(c1)OCO2` the figure was -9.28% (inactive); with `Nc1ccc(C(=O)Nc2ccc3c(O)cc(S(=O)(=O)O)cc3c2)cc1`, -4.38% (inactive).
As to `Cc1cc[n+](-c2[nH]c(=O)sc2/C=N/N=C(\[O-])c2ccccc2)cc1C`, the activity change, negative = cytotoxicity is -3.68% (inactive).
For `COC(=O)c1ccccc1NC(=O)CCS(=O)(=O)c1ccc(Br)cc1`, the activity change, negative = cytotoxicity was 10.1% (inactive).
`CCNc1nc(NC(C)C)nc(NS(=O)(=O)c2ccc(N)cc2)n1`: the activity change, negative = cytotoxicity is -6.72% (inactive).
`O=C(O)C(c1ccccc1)N1C(=O)/C(=C\c2ccc(-c3cccc(Cl)c3)o2)SC1=S` (configuration not stated): the activity change, negative = cytotoxicity is -2.5% (inactive).
With `Cn1c(Cl)c(C(=O)Nc2ccc(Cl)cc2)c2ccccc21` the figure was -6.51% (inactive); with `COc1cc(OC)cc(C(=O)NC2CC3CCC(C2)N3C)c1` (configuration not stated), 3.6% (inactive).
`O=C(/C=C\c1ccccc1)Oc1cccc2cccnc12`: the activity change, negative = cytotoxicity is -9.78% (inactive).
The result for `COC(=O)c1cc(N2CCN(C)CC2)nc2ccccc12` reads -6.94% (inactive); that for `O=C(OCc1ccccc1)N1C=CC2CC1c1c(Cl)cccc12` (configuration not stated), -8.44% (inactive); that for `CC(Sc1nc(-c2ccco2)nc2c1c(=O)n(C)c(=O)n2C)C(=O)O` (configuration not stated), -11% (inactive).
As for `CC(/C=C1\SC(=S)N(CCCC(=O)Nc2ccc(C(=O)O)cc2)C1=O)=C\c1ccccc1`, the activity change, negative = cytotoxicity is 3.31% (inactive).
With `O=C(N/N=C/c1ccc(N2CCOCC2)cc1)c1ccccn1` the figure was -14.2% (inactive); with `O=c1nc(N2CCOCC2)ccn1-c1nc(-c2ccccc2)sc1-c1ccccc1`, -8.43% (inactive).
The result for `CS(=O)(=O)Nc1nc2n(n1)C(c1ccccc1)C=C(c1ccc(Br)cc1)N2` (configuration not stated) reads -2.61% (inactive).
The result for `CC(C(=O)O)N1C(=O)/C(=C/C=C/c2ccco2)SC1=S` (configuration not stated) reads -13.5% (inactive); that for `Cc1oc2cc(O)ccc2c(=O)c1-c1nncn1-c1ccccc1`, 3.87% (inactive).
Turning to `O=C(NCCCN1CCCC1=O)c1ccc2c(c1)ncn2C1CCCCC1`, the activity change, negative = cytotoxicity was -5.77% (inactive).
For `O=C(O)/C=C/C(=O)Nc1ccc(Cc2ccc(NC(=O)/C=C/C(=O)O)cc2)cc1`, the activity change, negative = cytotoxicity was 6.62% (inactive).
In the case of `O=C(CCN1C(=O)/C(=C\c2ccco2)SC1=S)Nc1ccc(C(=O)O)c(O)c1`, the activity change, negative = cytotoxicity was 4.66% (inactive).
With `O=C(O)CCCCCn1c(SCC(=O)c2ccc(O)c(O)c2)nc2ccsc2c1=O` the figure was -16.5% (inactive); with `COc1ccc(/C=N/NC(=O)c2ccc3nc[nH]c3c2)c(OC)c1`, 3.07% (inactive).
For `COc1ccccc1CNC(=O)CCS(=O)(=O)c1cccs1`, the activity change, negative = cytotoxicity was 4.31% (inactive).
As for `O=C(CSc1cccc2cccnc12)N/N=C/c1ccc(O)cc1`, the activity change, negative = cytotoxicity is 0.069% (inactive).
The result for `O=C1/C(=C/c2ccco2)Oc2c1ccc(O)c2CN1CCCCC1` reads 4.96% (inactive); that for `Cn1c(=O)c(NC2CCCCC2)c2c3c(cccc31)C(=O)c1ccccc1-2`, -11.9% (inactive); that for `CCN(CC(=O)Nc1c(F)cccc1F)C(=O)CCCc1cccs1`, -23.5% (inactive).
With `CCCCN(C(=O)C(C)Oc1ccc(Br)cc1)c1c(N)n(CC(C)C)c(=O)[nH]c1=O` (configuration not stated) the figure was 3.21% (inactive).
With `COc1ccc(CC(=O)O/N=C(\N)c2ccc(OC)cc2)cc1` the figure was -11.5% (inactive).
`COc1ccc(-c2cc(C(F)(F)F)n3ncc(C(=O)N4CCCCC4c4cccnc4)c3n2)cc1` (configuration not stated): the activity change, negative = cytotoxicity was -6.34% (inactive).
With `COc1ccc(N(C(=O)c2ccc(Cl)cc2)C2=CC3CCC(C2)N3C)cc1` (configuration not stated) the figure was -1.73% (inactive).
As to `COC(=O)C1=C(N)OC2=C(C(=O)CCC2)C1c1cccs1` (configuration not stated), the activity change, negative = cytotoxicity was -5.56% (inactive).
With `O=C1C(=Cc2ccco2)CCC1=Cc1ccco1` the figure was -6.04% (inactive).
With `Nc1cc(N)nc(SCC(=O)N2CCCCC2)n1` the figure was 4.42% (inactive); with `CN1C(=O)NC(c2ccccc2[N+](=O)[O-])C2=C1CCCC2=O` (configuration not stated), -9.55% (inactive); with `C/C(=N\NC(=O)CCc1c(C)n[nH]c1C)c1ccc([N+](=O)[O-])cc1`, 6.48% (inactive).
The result for `CS(=O)(=O)c1cccc(C(=O)Oc2ccccc2)c1` reads 5.26% (inactive); that for `COc1ccc(C(=O)c2ccsc2N)cc1`, 2.38% (inactive); that for `Cc1cc(Cl)ccc1N1C(=O)CC(NNC(=O)c2cccnc2)C1=O` (configuration not stated), 5.15% (inactive).
For `O=C(O)C1C2C=CC(CC2)C1C(=O)O` (configuration not stated), the activity change, negative = cytotoxicity is -1.75% (inactive).
The result for `CC1CCCN(C(=O)C(=O)c2cn(CC(=O)N3CCCCCC3)c3ccccc23)C1` (configuration not stated) reads -6.83% (inactive).
For `CCC1(c2ccccc2)NC(=O)N(CC(=O)Nc2ccc(OC)nc2)C1=O` (configuration not stated), the activity change, negative = cytotoxicity is -1.91% (inactive).
With `Cc1cccc(COc2ccc(/C=N/NC(=O)c3nnn(-c4nonc4N)c3COc3ccc(F)cc3)cc2)c1` the figure was -4.08% (inactive); with `NNC(=O)C1C(O)CCC2CN3CCc4c([nH]c5ccccc45)C3CC21` (configuration not stated), -12.3% (inactive); with `CCN(C(=O)COC(=O)CNS(=O)(=O)c1ccc(SC)c([N+](=O)[O-])c1)C1CCCCC1`, -5.61% (inactive).
With `CC(C)CCN1C(=O)c2cccc3c(N)ccc(c23)C1=O` the figure was -14.7% (inactive).
The result for `CC(=O)OCCCn1c(C)[n+](C)c2cc(Cl)c(Cl)cc21` reads -14.3% (inactive).
As for `O=[N+]([O-])c1cccc(CSc2nc3ccccc3[nH]2)c1`, the activity change, negative = cytotoxicity was -8.29% (inactive).
`CCOC(=O)C1Nc2ccc(C(=O)O)cc2C2C=CCC12` (configuration not stated): the activity change, negative = cytotoxicity was -9.32% (inactive).
Consider `O=C1CN=C(Nc2ccccc2Cl)N1Cc1ccc2c(c1)OCO2`, for which the activity change, negative = cytotoxicity is -6.04% (inactive).
The result for `Cc1nc2ccccc2n2c(O)c(CC(=O)O)cc12` reads -13.5% (inactive); that for `O=C(Nc1ccc2c(c1)OCO2)N1CCCc2ccccc21`, -15.9% (inactive); that for `O=C(Nc1cc(Cl)ccc1-n1cncn1)c1cccs1`, -6.29% (inactive).
The result for `CC(=O)Nc1ccc(S(=O)(=O)Nc2ccccc2N2CCOCC2)cc1` reads 1.3% (inactive); that for `Cc1ccc(S(=O)(=O)/N=C/c2ccc(N(C)C)cc2)cc1`, 2.12% (inactive); that for `COCCN(CCOC)Cc1c(O)ccc2c1O/C(=C\c1ccco1)C2=O`, -13.7% (inactive).
The result for `C=CCOC(=O)C1=C[C@H](c2csc3ccccc23)C[C@H](OCc2ccc(CO)cc2)O1` reads -9.53% (inactive).
